# Experimental data published in patent publication US10759816B2, “Heterocyclic compounds as RSV inhibitors” (Enanta Pharmaceuticals, Inc., priority 2016, dated 2020).
# Test system: genotype A, "Long" strain RSV
# Assay: RSV-A in vitro cytoprotection assay in HEp-2 cells (ATPlite readout of cell viability)
# Type: cell-based, Human respiratory syncytial virus
# Conditions: human respiratory syncytial virus, HEp-2, HEp-2 cells, genotype A “Long” strain RSV, cytoprotection; read-out: Human RSV-A (“Long” strain) EC50
# How it was run: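 Cytoprotection measured as ATP-based luminescence (ATPlite) after 4-day incubation of RSV Long-infected HEp-2 cells (8,000/well, 10% FBS DMEM) with 2-fold serial compound dilutions in duplicate. Identically treated virus-free plate gives cytotoxicity; EC50 calculated from viability.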
row,Compound,EC50 [nM]
1,O=C(N[C@@H]1CCOC1)c1cc2c(s1)-c1ccccc1N(C(=O)c1cccc(-c3c[nH]nc3C3CC3)n1)CC2 [Example 176],< 400
2,Cc1cnc(N2CCC3(COC3)C2)c(NC(=O)c2ccc(C(=O)N3CCc4cc(C(=O)Nc5c(C)cccc5F)sc4-c4ccccc43)cc2)c1 [Example 139],> 800
3,COC(C)(C)Cn1cnnc1-c1cccc(C(=O)N2CCc3cc(C(=O)NC4CC4)sc3-c3ccccc32)n1 [Example 125],> 800
4,Cc1cccc(F)c1NC(=O)c1cc2c(s1)-c1ccccc1N(C(=O)c1cccc(N3CC4(CCS4(=O)=O)C3)n1)CC2 [Example 472],> 800
5,Cc1cc(-c2cccc(C(=O)N3CCc4cc(C(=O)Nc5ccccc5N)sc4-c4ccccc43)n2)n(C)n1 [Example 239],> 800
6,Cc1cccc(F)c1NC(=O)c1cc2c(s1)-c1ccccc1N(C(=O)c1cccc(N3C[C@H]4C[C@@H]3CO4)n1)CC2 [Example 429],< 400
7,CCOCCNc1cccc(C(=O)N2CCc3cc(C(=O)Nc4c(C)cccc4F)sc3-c3ccccc32)n1 [Example 330],< 400
8,Cc1cccc(F)c1NC(=O)c1cc2c(s1)-c1ccccc1N(C(=O)c1cccc(N(CCO)C3CC3)n1)CC2 [Example 326],400 to 800
9,Cc1cccc(F)c1NC(=O)c1cc2c(s1)-c1ccccc1N(C(=O)c1cccc(NCC3(C)CCCO3)n1)CC2 (stereo not shown) [Example 361],> 800
10,COc1ccc(CN(C)c2cccc(C(=O)N3CCc4cc(C(=O)NC5CC5)sc4-c4ccccc43)n2)cc1 [Example 294],> 800
11,Cc1cccc(F)c1NC(=O)c1cc2c(s1)-c1ccccc1N(C(=O)c1cccc(N3CCC[C@H]3c3ccccn3)n1)CC2 [Example 485],> 800
12,COCCN(c1ccccc1)c1cccc(C(=O)N2CCc3cc(C(=O)Nc4c(C)cccc4F)sc3-c3ccccc32)n1 [Example 115],< 400
13,O=C(NC1CC1)c1cc2c(s1)-c1ccccc1N(C(=O)c1cccc(N3CCOc4ccccc4C3=O)n1)CC2 [Example 414],> 800
14,COCCn1cc(-c2cccc(C(=O)N3CCc4cc(C(=O)Nc5c(C)cccc5F)sc4-c4ccccc43)n2)c(C2CC2)n1 [Example 226],> 800
15,COc1ccc(-c2cccc(C(=O)N3CCc4sc(C(=O)NC5CC5)nc4-c4ccccc43)n2)cn1 [Example 109],> 800
16,Cc1cccc(F)c1NC(=O)c1cc2c(s1)-c1c(F)cccc1N(C(=O)c1cccc(-c3cn[nH]c3C3CC3)n1)CC2 [Example 171],< 400
17,Cc1cccc(F)c1NC(=O)c1cc2c(s1)-c1ccccc1N(C(=O)c1cccc(-n3ccnc3C3CC3)n1)CC2 [Example 146],< 400
18,Cc1cccc(F)c1NC(=O)c1cc2c(s1)-c1ccccc1N(C(=O)c1cccc(N3C[C@@H]4C[C@H]3CO4)n1)CC2 [Example 430],< 400
19,Cc1cccc(F)c1NC(=O)c1cc2c(s1)-c1ccccc1N(C(=O)c1cccc(N(C)Cc3cccc(-c4ccccc4)c3)n1)CC2 [Example 352],400 to 800
20,N[C@@H]1CCN(c2cccc(C(=O)N3CCc4cc(C(=O)NC5CC5)sc4-c4ccccc43)n2)C1 [Example 38],> 800
21,Cc1cccc(F)c1NC(=O)c1cc2c(s1)-c1ccccc1N(C(=O)c1cccc(-n3ccnc3C3CCC3)n1)CC2 [Example 147],< 400

row,Compound,EC50 [nM]
1,O=C(NC1CC1)c1cc2c(s1)-c1ccccc1N(C(=O)c1cccc(C3=CCNCC3)n1)CC2 [Example 54],> 800
2,O=C(NC1CC1)c1cc2c(s1)-c1ccccc1N(C(=O)c1cccc(-c3cncc4ccccc34)n1)CC2 [Example 153],> 800
3,O=C(NC1CS(=O)(=O)C1)c1cc2c(s1)-c1ccccc1N(C(=O)c1cccc(-c3c[nH]nc3C3CC3)n1)CC2 [Example 181],> 800
4,CC(=O)N1CCCN(c2cccc(C(=O)N3CCc4cc(C(=O)Nc5c(C)cccc5F)sc4-c4ccccc43)n2)CC1 [Example 387],< 400
5,COc1ccc2c(c1)OCCN(c1cccc(C(=O)N3CCc4cc(C(=O)NC5CC5)sc4-c4ccccc43)n1)C2 [Example 282],< 400
6,Cc1cccc(F)c1NC(=O)c1cc2c(s1)-c1ccccc1N(C(=O)c1cccc(N3C[C@@H](O)C[C@@H]3C)n1)CC2 [Example 495],< 400
7,COc1ccccc1CNc1cccc(C(=O)N2CCc3cc(C(=O)NC4CC4)sc3-c3ccccc32)n1 [Example 287],> 800
8,Cc1cccc(F)c1NC(=O)c1cc2c(s1)-c1ccccc1N(C(=O)c1cccc(N3CCCN(S(=O)(=O)C4CC4)CC3)n1)CC2 [Example 382],< 400
9,O=C(NC1CC1)c1cc2c(s1)-c1ccccc1N(C(=O)c1ccc(NC(=O)N3CCOCC3c3ccccc3)cc1)CC2 (stereo not shown) [Example 15],> 800
10,O=C(NC1CC1)c1cc2c(s1)-c1ccccc1N(C(=O)c1ccc3ccc(-c4ccncc4)nc3c1)CC2 [Example 187],> 800
11,O=C(NC1CC1)c1cc2c(s1)-c1ccccc1N(C(=O)c1cccc(-c3ccnc(N4CCOCC4)c3)n1)CC2 [Example 85],< 400
12,COC[C@H]1CCCN1c1cccc(C(=O)N2CCc3cc(C(=O)Nc4c(C)cccc4F)sc3-c3ccc(C)cc32)n1 [Example 499],< 400
13,CC(=O)N1CCCN(c2cccc(C(=O)N3CCc4cc(C(=O)Nc5c(C)cccc5F)sc4-c4ccccc43)n2)c2ccccc21 [Example 378],< 400
14,Cc1cccc(F)c1NC(=O)c1cc2c(s1)-c1ccccc1N(C(=O)c1cccc(-c3cncn3C3CC3)n1)CC2 [Example 233],< 400
15,Cc1cccc(F)c1NC(=O)c1cc2c(s1)-c1ccccc1N(C(=O)c1cccc(N3CCCN(S(C)(=O)=O)c4ccccc43)n1)CC2 [Example 377],> 800
16,Cc1cccc(F)c1NC(=O)c1cc2c(s1)-c1ccccc1N(C(=O)c1cccc(N(CCS(C)(=O)=O)C3CC3)n1)CC2 [Example 463],400 to 800
17,CC(C)(O)c1ccc(-c2cccc(C(=O)N3CCc4cc(C(=O)NC5CC5)sc4-c4ccccc43)n2)cc1 [Example 64],400 to 800
18,O=C(NC1CC1)c1cc2c(s1)-c1ccccc1N(C(=O)c1cccc(-c3ccc(N4CCCOCC4)nc3)n1)CC2 [Example 90],400 to 800
19,O=C(NC1CC1)c1cc2c(s1)-c1ccccc1N(C(=O)c1cccc(N3CCC4(CCOCC4)CC3)n1)CC2 [Example 26],400 to 800
20,COCCNc1cccc(C(=O)N2CCc3cc(C(=O)NC4CC4)sc3-c3ccccc32)n1 [Example 33],400 to 800
21,O=C(NCc1ccccn1)c1cc2c(s1)-c1ccccc1N(C(=O)c1cccc(N3CCOc4ccccc4C3)n1)CC2 [Example 306],< 400

row,Compound,EC50 [nM]
1,Cc1cnc(N2CC3(CCOCC3)C2)c(NC(=O)c2ccc(C(=O)N3CCc4cc(C(=O)Nc5c(C)cccc5F)sc4-c4ccccc43)cc2)c1 [Example 142],< 400
2,Cc1cccc(F)c1NC(=O)c1cc2c(s1)-c1ccccc1N(C(=O)c1cccc(-c3cn(S(=O)(=O)C4CC4)nc3C3CC3)n1)CC2 [Example 221],< 400
3,O=C(NC1CC1)c1cc2c(s1)-c1ccccc1N(S(=O)(=O)c1cccc(N3CCCOCC3)n1)CC2 [Example 102],> 800
4,Cc1cccc(F)c1NC(=O)c1cc2c(s1)-c1ccccc1N(C(=O)c1cccc(-n3cnc4ncccc43)n1)CC2 [Example 122],> 800
5,COc1ccc2c(c1)CN(c1cccc(C(=O)N3CCc4cc(C(=O)NC5CC5)sc4-c4ccccc43)n1)CCO2 [Example 280],< 400
6,Cc1cccc(F)c1NC(=O)c1cc2c(s1)-c1ccccc1N(C(=O)c1cccc(N(C)Cc3ccccc3-c3ccccc3)n1)CC2 [Example 355],> 800
7,CC(C)(Nc1cccc(C(=O)N2CCc3cc(C(=O)NC4CC4)sc3-c3ccccc32)n1)c1ccccn1 [Example 293],> 800
8,Cc1cccc(F)c1NC(=O)c1cc2c(s1)-c1ccccc1N(C(=O)c1cccc(-c3c[nH]c4ncccc34)n1)CC2 [Example 243],< 400
9,O=C(NC1CC1)c1ccc2c(c1)CCN(C(=O)c1cccc(N3CCOc4ccccc4C3)n1)c1ccccc1-2 [Example 397],> 800
10,O=C(NC1CNC1)c1cc2c(s1)-c1ccccc1N(C(=O)c1cccc(-c3c[nH]nc3C3CC3)n1)CC2 [Example 182],> 800
11,O=C(NC1CC1)c1cc2c(s1)-c1ccccc1N(C(=O)c1cccc(-c3nncn3C3COC3)n1)CC2 [Example 128],> 800
12,O=C(NC1CC1)c1cc2c(s1)-c1ccccc1N(C(=O)c1cccc(N3CCOc4ccccc4C3)n1)CC2 [Example 32],< 400
13,Cc1cccc(F)c1NC(=O)c1cc2c(s1)-c1ccccc1N(C(=O)c1cccc(-c3cncn3-c3ccccc3)n1)CC2 [Example 203],> 800
14,Cc1noc([C@H]2C[C@@H](O)CN2c2cccc(C(=O)N3CCc4cc(C(=O)Nc5c(C)cccc5F)sc4-c4ccccc43)n2)n1 [Example 496],> 800
15,O=C(NC1CC1)c1cc2c(s1)-c1ccccc1N(C(=O)c1cccc(C3=CCN(C4COC4)CC3)n1)CC2 [Example 56],> 800
16,O=C(NC1CC1)c1cc2c(s1)-c1ccccc1N(C(=O)c1ccc3nc(N4CCOCC4)oc3c1)CC2 [Example 10],> 800
17,Cc1cccc(F)c1NC(=O)c1cc2c(s1)-c1ccccc1N(C(=O)c1cccc(-c3cn(C(=O)N(C)C)nc3C3CC3)n1)CC2 [Example 219],400 to 800
18,COC(=O)n1cc(-c2cccc(C(=O)N3CCc4cc(C(=O)Nc5c(C)cccc5F)sc4-c4ccccc43)n2)c(C2CC2)n1 [Example 214],< 400
19,O=C(NC1CC1)c1cc2c(s1)-c1ccccc1N(C(=O)c1ccc(F)c(-c3ccnc(N4CCOCC4)c3)n1)CC2 [Example 71],400 to 800
20,O=C(Nc1cc2c(s1)-c1ccccc1N(C(=O)c1cccc(N3CCOc4ccccc4C3)n1)CC2)NS(=O)(=O)C1CC1 [Example 316],> 800
21,Cc1cccc(F)c1NC(=O)c1cc2c(s1)-c1ccccc1N(C(=O)c1cccc(N3CCC[C@H]3C(C)C)n1)CC2 [Example 483],< 400

# Same assay, conditions: human respiratory syncytial virus, HEp-2, read-out: Human RSV-A (“Long” strain) EC50
row,Compound,EC50 [nM]
1,Cc1ccc2c(c1)c(-c1cccc(C(=O)N3CCc4cc(C(=O)Nc5c(C)cccc5F)sc4-c4ccccc43)n1)cn2[Si](C)(C)C(C)(C)C [Example 254],> 800
